# What was measured:
# [1] = target: T1, 3-phosphoinositide-dependent protein kinase 1 (Homo sapiens) (UniProt O15530); experiment: Agonist activity at PDK1 (unknown origin) using T308tide as substrate assessed as concentration required to elicit 50% response in presence of [gamma-32P]ATP
# T1 sequence (whole entry): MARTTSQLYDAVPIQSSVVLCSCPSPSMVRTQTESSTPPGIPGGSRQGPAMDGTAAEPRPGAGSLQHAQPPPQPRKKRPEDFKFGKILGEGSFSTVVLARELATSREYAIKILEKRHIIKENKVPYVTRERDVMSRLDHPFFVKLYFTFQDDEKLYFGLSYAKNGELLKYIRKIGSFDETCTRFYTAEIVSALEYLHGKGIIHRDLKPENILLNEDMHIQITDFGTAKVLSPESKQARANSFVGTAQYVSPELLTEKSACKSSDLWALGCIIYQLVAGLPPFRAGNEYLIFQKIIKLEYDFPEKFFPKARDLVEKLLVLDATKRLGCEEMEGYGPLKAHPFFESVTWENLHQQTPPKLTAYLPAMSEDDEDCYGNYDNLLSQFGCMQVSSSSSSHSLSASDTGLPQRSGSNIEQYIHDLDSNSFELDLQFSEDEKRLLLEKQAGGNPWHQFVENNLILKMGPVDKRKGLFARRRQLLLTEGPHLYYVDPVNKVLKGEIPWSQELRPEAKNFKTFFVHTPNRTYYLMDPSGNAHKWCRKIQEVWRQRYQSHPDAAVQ
# [2] = target: T1, 3-phosphoinositide-dependent protein kinase 1 (Homo sapiens); experiment: Agonist activity at human N-terminal His6-tagged PDK1 amino acid residues 51 to 359 expressed in insect sf21 cells using T308tide as substrate at 313 uM incubated for 60 mins prior to substrate addition measured after 60 mins by ATP depletion assay
# [3] = target: T2, 3-phosphoinositide-dependent protein kinase 1 (Homo sapiens, UniProt O15530); experiment: Inhibition of recombinant PDK1 (unknown origin) using RPRAATF peptide as substrate assessed as substrate phosphorylation by scintillation counting analysis in presence of [gamma-32P]ATP
# T2 sequence (O15530 whole entry): T1 sequence (whole entry)
# [4] = Antiproliferative activity against PTEN-deficient human […] cells after 72 hrs by ATP ViaLight assay; assay type: functional, cell-based
# [5] = test system: MDA-MB-231; experiment: Antiproliferative activity against human MDA-MB-231 cells harboring KRAS mutant after 72 hrs by ATP ViaLight assay; assay type: functional, cell-based; details: MDA-MB-231, 72 h
# [6] = test system: NCI-H446; experiment: Antiproliferative activity against PTEN-deficient human NCI-H446 cells after 72 hrs by ATP ViaLight assay; assay type: functional, cell-based; details: NCI-H446, 72 h
# [7] = test system: PC-3; experiment: Antiproliferative activity against PTEN-deficient human PC3 cells after 72 hrs by ATP ViaLight assay; assay type: functional, cell-based; details: PC-3, 72 h
# [8] = Antiproliferative activity against PTEN-deficient human U87 cells after 72 hrs by ATP ViaLight assay; assay type: functional, cell-based, U-87MG ATCC; details: U-87 MG
# [9] = test system: BT-474; experiment: Antiproliferative activity against human BT474 cells harboring PI3KCA mutant after 72 hrs by ATP ViaLight assay; assay type: functional, cell-based; details: BT-474, 72 h
# [10] = test system: MDA-MB-453; experiment: Antiproliferative activity against human MDA-MB-453 cells harboring PI3KCA mutant after 72 hrs by ATP ViaLight assay; assay type: functional, cell-based; details: MDA-MB-453, 72 h
# [11] = test system: T47D; experiment: Antiproliferative activity against human T47D cells harboring PI3KCA mutant after 72 hrs by ATP ViaLight assay; assay type: functional, cell-based
# [12] = Antiproliferative activity against human NCI-H1915 cells harboring KRAS mutant after 72 hrs by ATP ViaLight assay; assay type: functional, cell-based; details: NCI-H1915, 72 h
# [13] = test system: HCT-116; experiment: Antiproliferative activity against human HCT116 cells harboring PI3KCA/KRAS double mutant after 72 hrs by ATP ViaLight assay; assay type: functional, cell-based; details: HCT-116, 72 h
# [14] = test system: LS-513; experiment: Antiproliferative activity against human LS513 cells harboring KRAS mutant after 72 hrs by ATP ViaLight assay; assay type: functional, cell-based; details: LS-513, 72 h
# [15] = test system: LNCaP; experiment: Antiproliferative activity against PTEN-deficient human LNCAP cells after 72 hrs by ATP ViaLight assay; assay type: functional, cell-based
# [16] = test system: A549; experiment: Antiproliferative activity against human A549 cells harboring KRAS mutant after 72 hrs by ATP ViaLight assay; assay type: functional, cell-based; details: A549, 72 h
# [17] = test system: MCF7; experiment: Antiproliferative activity against human MCF7 cells harboring PI3KCA mutant after 72 hrs by ATP ViaLight assay; assay type: functional, cell-based; details: MCF7, 72 h
# [18] = test system: NCI-H1437; experiment: Antiproliferative activity against human NCI-H1437 cells after 72 hrs by ATP ViaLight assay; assay type: functional, cell-based; details: NCI-H1437, 72 h
# [19] = test system: UMC-11; experiment: Antiproliferative activity against human UMC11 cells after 72 hrs by ATP ViaLight assay; assay type: functional, cell-based; details: UMC-11, 72 h
# [20] = test system: A-427; experiment: Antiproliferative activity against human A427 cells harboring KRAS mutant after 72 hrs by ATP ViaLight assay; assay type: functional, cell-based; details: A-427, 72 h
# [21] = target: T2, 3-phosphoinositide-dependent protein kinase 1; experiment: Inhibition of PDK1 (unknown origin)
# [22] = target: Serine/threonine-protein kinase mTOR (Homo sapiens, UniProt P42345); experiment: Inhibition of MTOR (unknown origin)
compound,measurement,setting,value
O=C(O)CSC(CC(=O)c1ccc(Cl)cc1)c1ccccc1 (configuration not stated),Activity,[1],34 µM
COc1ccc(CC(C(=O)O)c2ccccc2)cc1 (configuration not stated),Activity,[2],33%
NC(N)=Nc1ccc(-n2nc(C(F)(F)F)cc2-c2ccc3c(ccc4ccccc43)c2)cc1,IC50,[3],2 µM
O=C(N[C@@H](COc1ccc2[nH]c(=O)[nH]c2c1)c1ccccc1)c1cccn(Cc2ccc(F)c(F)c2)c1=O,EC50,[4],> 9 µM
same,EC50,[5],> 9 µM
same,EC50,[6],> 9 µM
same,EC50,[7],> 9 µM
same,EC50,[8],> 9 µM
same,EC50,[9],> 9 µM
same,EC50,[10],> 9 µM
same,EC50,[11],> 9 µM
same,EC50,[12],> 9 µM
same,EC50,[13],> 9 µM
same,EC50,[14],> 9 µM
same,EC50,[15],> 9 µM
same,EC50,[16],> 9 µM
same,EC50,[17],> 9 µM
same,EC50,[18],> 9 µM
same,EC50,[19],> 9 µM
same,EC50,[20],> 9 µM
O=P(O)(O)O[C@@H]1[C@@H](OP(=O)(O)O)[C@@H](OP(=O)(O)O)[C@@H](OCc2ccccc2)[C@H](OP(=O)(O)O)[C@H]1OP(=O)(O)O,IC50,[21],0.0265 µM
same,IC50,[22],1.3 µM

# Reference: ChEMBL document CHEMBL2331244, “Selective 3-phosphoinositide-dependent kinase 1 (PDK1) inhibitors: dissecting the function and pharmacology of PDK1” (J Med Chem, 2013)
